From the OligoGym collection
Several values for one entry are separate records, joined by “and”; a condition that tells them apart may be missing. Equal values may be shown once. After the bases stand the sugars from the 5' end (letter, count) and the backbone: PS all phosphorothioate, else s phosphorothioate and o phosphodiester by linkage. Methylation of C is not given here. e = 2'-O-(2-methoxyethyl) (MOE); d = 2'-deoxy (DNA)

Biological target: DGAT2
Details: ASO

Sequence | target mRNA inhibition (HepG2, 0.12 µM) | target mRNA inhibition (HepG2, 2.5 µM) | target mRNA inhibition (HepG2, 10 µM) | target mRNA inhibition (HepG2, 20 µM) [%]
GTGTCTTCACCAGCTGGATG (sugars e5 d10 e5, PS) | 49% | 16% | – | –
GTTCTTCCAACCAGTGTTTG (sugars e5 d10 e5, PS) | – | 47% | 81% | –
GTTGCCATCATACTAGACTA (sugars e5 d10 e5, PS) | – | 65% | 85% | –
TAACCACAGCGATAATCACA (sugars e5 d10 e5, PS) | – | 60% | 93% | –
TAAGGAAAACTTAGGCATGC (sugars e5 d10 e5, PS) | – | 75% | 69% | –
TAAGGGTATTCTGCTCATAA (sugars e5 d10 e5, PS) | – | 63% | 93% | –
TACCTGCTATGCTGAGAGCA (sugars e5 d10 e5, PS) | – | 65% | 80% | –
TACCTTATCTTTGTCCACAT (sugars e5 d10 e5, PS) | – | – | 78% and 91% | –
TAGAGGTTTACTGCATAGCT (sugars e5 d10 e5, PS) | – | 84% and 72% | 85% and 92% | –
TAGCATTGCCACTCCCATTC (sugars e2 d13 e5, PS) | 60% | – | – | –
TAGCCAGGTAAGGCCGTATG (sugars e2 d13 e5, PS) | 51% | – | – | –
TAGGATGCTTAACTTCTGCT (sugars e5 d10 e5, PS) | – | 58% | 85% | –
TATTTGAAGATAAAGTCAGA (sugars e5 d10 e5, PS) | 0% | – | – | –
TCACATGCCTGAGGGCAGCA (sugars e5 d10 e5, PS) | – | 66% | 86% | –
TCACCAGGGCCTCCATGTAC (sugars e2 d13 e5, PS) | 3% | – | – | –
TCACCTGCTTGTACACTTCA (sugars e5 d10 e5, PS) | 40% | – | – | –
TCAGAGACTCAGCCGCACCC (sugars e2 d13 e5, PS) | 56% | – | – | –
TCAGAGACTCAGCCGCACCC (sugars e3 d14 e3, PS) | 41% | – | – | –
TCAGCAGGTTGTGTGTCTTC (sugars e3 d14 e3, PS) | 54% | – | – | –
TCAGCCTAGAGGCCCTGGAC (sugars e5 d10 e5, PS) | 26% | – | – | –
TCCAATGCACCTTGTATTAA (sugars e5 d10 e5, PS) | – | 72% and 52% | 92% and 83% | –
TCCACCTAGCTCATGGTGGC (sugars e5 d10 e5, PS) | 21% | – | – | –

Sequence | target mRNA inhibition (HepG2, 0.12 µM) | target mRNA inhibition (HepG2, 2.5 µM) | target mRNA inhibition (HepG2, 10 µM) | target mRNA inhibition (HepG2, 20 µM) [%]
TCCCATTCTTTGAAAGCAAA (sugars e5 d10 e5, PS) | 31% | – | – | –
TCCTGGTCCCAGTACTTTCT (sugars e5 d10 e5, PS) | – | 71% and 73% | 91% and 92% | –
TCTCATGCTAGGTCCTGTGC (sugars e5 d10 e5, PS) | – | 89% and 74% | 90% and 88% | –
TCTCCTCTGCTTCTTGGGCA (sugars e5 d10 e5, PS) | – | 69% and 67% | 85% and 82% | –
TCTCGAATATCCCTAATAAC (sugars e5 d10 e5, PS) | – | 34% | 87% | –
TCTGGAACTTCTTCTGGACC (sugars e5 d10 e5, PS) | 43% | – | – | –
TCTTCACCAGCTGGATGGGA (sugars e5 d10 e5, PS) | 50% | – | – | –
TCTTGCCAGGCATGGAGCTC (sugars e5 d10 e5, PS) | 47% | – | – | –
TCTTTGCTTGCCAGGTGAGC (sugars e5 d10 e5, PS) | – | 67% | 71% | –
TGACCAGGAAGGCCACACCT (sugars e5 d10 e5, PS) | 15% | – | – | –
TGACTGCATTCTTGCCAGGC (sugars e5 d10 e5, PS) | – | 16% | 69% | –
TGAGGCCAAGGACAGAGGTT (sugars e5 d10 e5, PS) | – | 59% | 85% | –
TGATAGCATTGCCACTCCCA (sugars e3 d14 e3, PS) | 66% | – | – | –
TGCAATGTTGCCATCATACT (sugars e5 d10 e5, PS) | – | 65% and 49% | 91% and 83% | –
TGCAGAAGGCACCCAGGCCC (sugars e5 d10 e5, PS) | 46% | – | – | –
TGCAGCTTGGAGGAGGAGTA (sugars e5 d10 e5, PS) | 36% | – | – | –
TGCCACTCCCATTCTTTGAA (sugars e5 d10 e5, PS) | – | 0% | 62% | –
TGCGCGATTCACTGAGGACC (sugars e5 d10 e5, PS) | – | 51% | 87% | –
TGCTGCTCAGAAGGCCAGGC (sugars e5 d10 e5, PS) | 42% | – | – | –
TGGAGCTCAGAGACTCAGCC (sugars e2 d16 e2, PS) | 37% | – | – | –
TGGATGGGAAAGTAGTCTCG (sugars e5 d10 e5, PS) | 40% | – | – | –
TGGCCCTGTGCTCTGTGGGC (sugars e5 d10 e5, PS) | – | – | 35% and 33% | –

Sequence | target mRNA inhibition (HepG2, 0.12 µM) | target mRNA inhibition (HepG2, 2.5 µM) | target mRNA inhibition (HepG2, 10 µM) | target mRNA inhibition (HepG2, 20 µM) [%]
TGGCTCAGTTCACCTCCAGG (sugars e5 d10 e5, PS) | – | 53% | 86% | –
TGGCTTCCTCAGGGCCCACC (sugars e5 d10 e5, PS) | – | 79% | 87% | –
TGGGAACTTCTTGCTCACTT (sugars e5 d10 e5, PS) | 43% | – | – | –
TGGTCAGCAGGTTGTGTGTC (sugars e2 d13 e5, PS) | 57% | – | – | –
TGGTCAGCAGGTTGTGTGTC (sugars e5 d10 e5, PS) | 55% and 43% | 19% | 72% | 83
TGTGTGACCTTGGGCAAGTT (sugars e5 d10 e5, PS) | – | 61% and 57% | 78% and 88% | –
TGTGTGTCTTCACCAGCTGG (sugars e5 d10 e5, PS) | 55% | 28% | 73% | 94
TGTTATCCGAGTTGAATTCT (sugars e5 d10 e5, PS) | 45% | – | – | –
TTAAATAACCCACAGACACC (sugars e5 d10 e5, PS) | 0% | – | – | –
TTAAGCTTTGTGACCTTGGG (sugars e5 d10 e5, PS) | 67% | – | – | –
TTACTCCACCTAGCTCATGG (sugars e5 d10 e5, PS) | 6% | – | – | –
TTCAAAAAGTAGCTACTGCA (sugars e5 d10 e5, PS) | 47% | – | – | –
TTCACCAGCTGGATGGGAAA (sugars e5 d10 e5, PS) | 26% | – | – | –
TTCACCTCCAGGACCTCAGT (sugars e5 d10 e5, PS) | 46% | – | – | –
TTCATCTTTCCAGATCCGGA (sugars e5 d10 e5, PS) | – | 71% | 92% | –
TTCCTCATCTATACAGTGGG (sugars e5 d10 e5, PS) | – | 57% and 72% and 73% | 89% and 82% and 92% | –
TTCCTGGTGGTCAGCAGGTT (sugars e5 d10 e5, PS) | 61% | – | – | –
TTCGGACCCACTGTGACCTC (sugars e2 d13 e5, PS) | 71% | – | – | –
TTGAAAGCAAATAGTCTATG (sugars e5 d10 e5, PS) | 42% | – | – | –
TTGAAATCCAATGCACCTTG (sugars e5 d10 e5, PS) | – | 62% | 93% | –
TTGCAATGTTGCCATCATAC (sugars e5 d10 e5, PS) | – | – | 96% and 94% | –
